# Laboratory results from patent US4174406A, “Terpenylaminoalkanol fish toxicants” (priority 1977, dated 1979).
# What was measured:
# [1] = tested on: White sucker; experiment: Laboratory fish toxicity test (Table 1); type: in vivo, Catostomus commersoni; conditions: tech, 12 C, soft water
# Experimental: (§1) Fish were obtained from state and federal hatcheries and maintained prior to testing by a trained fish culturist. Fish of total length 2-5 cm were used in laboratory tests while for outdoor tests small fish (4-6 cm in length) and larger carp and buffalo (Ictiobus cyprinellus) were used.
# (§2) In all tests 10 fish of each were exposed to selective concentrations of the toxicant. Mortalities were observed and recorded at 1,2 and 6 hours on the first day and once daily thereafter, during 96 hour exposure.
# (§3) Laboratory tests were also conducted in soft water 12° C. wherein the toxicant was evaluated against fifteen species of fish including both cold and warm water varieties. In Table 1, the LC 50 toxicity values for N-(2-hydroxyethyl) digeranylamine is shown for various species. LC50 is defined as the amount (mg/liter) of toxicant required to kill 50 percent of the particular fish species at 95% confidence interval.
# [2] = tested on: bluegill; experiment: Toxicity to bluegill in waters of different hardness; type: in vivo, bluegill (Lepomis macrochirus)
# Experimental: The selective toxicant, N-(2-hydroxyethyl)digeranylamine was evaluated against bluegill in waters of hardness of 12, 44, 170, and 300 p.p.m., total hardness as CaCo3. […] In contrast the specific aminoalkanols of this invention are selective to carp (Caprinus carpio) and effective in waters of high pH.
# [3] = tested on: Coho salmon; experiment: Laboratory fish toxicity test (Table 1); type: in vivo, Oncorhynchus kisutch; conditions: tech, 12 C, soft water
# Experimental: as §1, §2, §3
# [4] = tested on: Walleye; experiment: Outdoor plastic pool test (Table 3); type: in vivo, Sitzostedion vitreum; conditions: for % kill: 96 hour, 50% formulation (hydrochloride salt)
# Experimental: (§4) N-(2-hydroxyethyl) digeranylamine was tested as a selective fish toxicant in outdoor pools stocked with various fish species and lined with black plastic using 50% water soluble formulations (hydrochloride salt). The formulation was added to each of four pools of 4,000-liter capacity at concentrations of 0.10, 0.15, 0.20, and 0.30 mg/liter. Another pool containing the same number, size, and species of fish served as a control. The test water had algal blooms, a pH of about 8.5, and a total hardness of about 200 mg/liter as CaCo3. The temperature was cool enough (15°-16°C.) to permit the use of trout.
# as §1, §2
# (§5) Outdoor pool tests were conducted using 50% formulation of the toxicant N-(2-hydroxyethyl) digeranylamine as indicated in Example 8. […] If selective control of white sucker and common carp is desired in an environment which includes rainbow trout, one should employ an effective concentration of toxicant which is at least as great as 0.05 mg/liter but less than 0.1 mg/liter. As a practical fishery practice in the northern United States and Canada, rainbow trout are not usually stocked in bodies of water containing the common carp species; the habitat conditions including water temperature and available oxygen of these species are usually quite different. Common carp and rainbow trout have quite different oxygen and temperature requirements and these differences generally preclude both species cohabitating under natural conditions. In this case the useful range to control common carp and white sucker can be much broader, i.e. 0.1 to 0.3 mg/liter.
# [5] = tested on: Walleye; experiment: Laboratory fish toxicity test (Table 1); type: in vivo, Stizostedion vitreum; conditions: tech, 12 C, soft water
# Experimental: as §1, §2, §3
# [6] = tested on: White sucker; experiment: Outdoor plastic pool test (Table 3); type: in vivo, Catostomus commersoni; conditions: for % kill: 96 hour, 50% formulation (hydrochloride salt); for survival (in words): white suckers
# Experimental: as §4, §1, §2, §5
# [7] = tested on: Lake trout; experiment: Laboratory fish toxicity test (Table 1); type: in vivo, Salvelinus namaycush; conditions: tech, 12 C, soft water
# Experimental: as §1, §2, §3
# [8] = tested on: Bluegill; experiment: Laboratory fish toxicity test (Table 1); type: in vivo, Lepomis macrochirus; conditions: tech, 12 C, soft water
# Experimental: as §1, §2, §3
# [9] = tested on: Goldfish; experiment: Outdoor plastic pool test (Table 3); type: in vivo, Carassius auratus; conditions: for % kill: 96 hour, 50% formulation (hydrochloride salt)
# Experimental: as §4, §1, §2, §5
# [10] = tested on: Fathead minnow; experiment: Outdoor plastic pool test (Table 3); type: in vivo, Pimephales promelas; conditions: for % kill: 96 hour, 50% formulation (hydrochloride salt)
# Experimental: as §4, §1, §2, §5
# [11] = tested on: Grass carp; experiment: Outdoor plastic pool test (Table 3); type: in vivo, Ctenopharyngodon idella; conditions: for % kill: 96 hour, 50% formulation (hydrochloride salt)
# Experimental: as §4, §1, §2, §5
# [12] = tested on: Chinook salmon; experiment: Laboratory fish toxicity test (Table 1); type: in vivo, Oncorhynchus tschawytscha; conditions: tech, 12 C, soft water
# Experimental: as §1, §2, §3
# [13] = tested on: Yellow perch; experiment: Outdoor plastic pool test (Table 3); type: in vivo, Perca flavescens; conditions: for % kill: 96 hour, 50% formulation (hydrochloride salt)
# Experimental: as §4, §1, §2, §5
# [14] = tested on: Goldfish; experiment: Laboratory fish toxicity test (Table 1); type: in vivo, Carassius auratus; conditions: tech, 12 C, soft water
# Experimental: as §1, §2, §3
# [15] = tested on: Rainbow trout; experiment: Laboratory fish toxicity test (Table 1); type: in vivo, Salmo gairdneri; conditions: tech, 12 C, soft water
# Experimental: as §1, §2, §3
# [16] = tested on: Largemouth bass; experiment: Outdoor plastic pool test (Table 3); type: in vivo, Micropterus salmoides; conditions: for % kill: 96 hour, 50% formulation (hydrochloride salt)
# Experimental: as §4, §1, §2, §5
smiles,measurement,setting,value
CC(C)=CCC/C(C)=C/CN(C/C=C(\C)CCC=C(C)C)CCO [N-(2-hydroxyethyl) digeranylamine],LC50,[1]; 3 hours,0.540 µg/mL
same,LC50,[1]; 6 hours,0.136 µg/mL
same,LC50,[1]; 24 hours,0.0690 µg/mL
same,96-hour LC50,[2]; total hardness 12 p.p.m. as CaCo3,0.84 µg/mL
same,96-hour LC50,[2]; total hardness 44 p.p.m. as CaCo3,0.72 µg/mL
same,96-hour LC50,[2]; total hardness 170 p.p.m. as CaCo3,0.46 µg/mL
same,96-hour LC50,[2]; total hardness 300 p.p.m. as CaCo3,0.33 µg/mL
same,LC50,[3]; 3 hours,0.320 µg/mL
same,LC50,[3]; 6 hours,0.240 µg/mL
same,LC50,[3]; 24 hours,0.200 µg/mL
same,LC50,[3]; 96 hours,0.142 µg/mL
same,% kill,[4]; 0.10 mg/l,0%
same,% kill,[4]; 0.15 mg/l,10%
same,% kill,[4]; 0.20 mg/l,0%
same,% kill,[4]; 0.30 mg/l,0%
same,survival (in words),"[4]; walleye, 0.3 mg/liter, 50% formulation",complete survival
same,LC50,[5]; 3 hours,2.78 µg/mL
same,LC50,[5]; 6 hours,1.03 µg/mL
same,LC50,[5]; 24 hours,0.346 µg/mL
same,LC50,[5]; 96 hours,0.239 µg/mL
same,% kill,[6]; 0.10 mg/l,20%
same,% kill,[6]; 0.15 mg/l,70%
same,% kill,[6]; 0.20 mg/l,100%
same,% kill,[6]; 0.30 mg/l,100%
same,survival (in words),[6]; 0.2 mg/liter or higher,none survived
same,survival (in words),[6]; 0.10 and 0.15 mg/liter,Some white suckers and larger carp (19 cm) survived
same,LC50,[7]; 3 hours,0.109 µg/mL
same,LC50,[7]; 6 hours,0.0700 µg/mL
same,LC50,[7]; 24 hours,0.0470 µg/mL
same,LC50,[7]; 96 hours,0.0570 µg/mL
same,LC50,[8]; 3 hours,1.56 µg/mL
same,LC50,[8]; 6 hours,1.13 µg/mL
same,LC50,[8]; 24 hours,0.720 µg/mL
same,LC50,"[8]; 96 hours, 5760 min",0.72 µg/mL
same,LC50,"[8]; 96 hours, listed as N-(2-hydroxyethyl) Digeranylamine, 5760 min",0.720 µg/mL
same,% kill,[9]; 0.10 mg/l,0%
same,% kill,[9]; 0.15 mg/l,0%
same,% kill,[9]; 0.20 mg/l,0%
same,% kill,[9]; 0.30 mg/l,0%
same,survival (in words),"[9]; goldfish, 0.3 mg/liter, 50% formulation",complete survival
same,% kill,[10]; 0.10 mg/l,0%
same,% kill,[10]; 0.15 mg/l,10%
same,% kill,[10]; 0.20 mg/l,10%
same,% kill,[10]; 0.30 mg/l,80%
same,survival (in words),"[10]; fathead minnows, 0.30 mg/liter and lower, 50% formulation","died at 0.30 mg/liter of toxicant, but all survived lower concentrations"
same,% kill,[11]; 0.10 mg/l,0%
same,% kill,[11]; 0.15 mg/l,0%
same,% kill,[11]; 0.20 mg/l,0%
same,% kill,[11]; 0.30 mg/l,0%
same,survival (in words),"[11]; grass carp, 0.3 mg/liter, 50% formulation",complete survival
same,LC50,[12]; 3 hours,0.300 µg/mL
same,LC50,[12]; 6 hours,0.210 µg/mL
same,LC50,[12]; 24 hours,0.167 µg/mL
same,LC50,[12]; 96 hours,0.129 µg/mL
same,% kill,[13]; 0.10 mg/l,0%
same,% kill,[13]; 0.15 mg/l,30%
same,% kill,[13]; 0.20 mg/l,0%
same,% kill,[13]; 0.30 mg/l,50%
same,survival (in words),"[13]; yellow perch, 0.30 mg/liter and lower, 50% formulation","died at 0.30 mg/liter of toxicant, but all survived lower concentrations"
same,LC50,[14]; 24 hours,0.961 µg/mL
same,LC50,[14]; 96 hours,0.290 µg/mL
same,LC50,[15]; 3 hours,0.220 µg/mL
same,LC50,[15]; 6 hours,0.189 µg/mL
same,LC50,[15]; 24 hours,0.187 µg/mL
same,LC50,[15]; 96 hours,0.136 µg/mL
same,% kill,[16]; 0.10 mg/l,0%
same,% kill,[16]; 0.15 mg/l,0%
same,% kill,[16]; 0.20 mg/l,0%
same,% kill,[16]; 0.30 mg/l,0%
same,survival (in words),"[16]; largemouth bass, 0.3 mg/liter, 50% formulation",complete survival
